The record followed here is ChEMBL document CHEMBL5465560, “Selectivity Literature for EUbOPEN Chemogenomic Library” (2024).

Structures are written as SMILES.

Experiment [1] deals with T1, Dual specificity tyrosine-phosphorylation-regulated kinase 3 (Homo sapiens) (UniProt O43781).
T1 sequence (whole entry): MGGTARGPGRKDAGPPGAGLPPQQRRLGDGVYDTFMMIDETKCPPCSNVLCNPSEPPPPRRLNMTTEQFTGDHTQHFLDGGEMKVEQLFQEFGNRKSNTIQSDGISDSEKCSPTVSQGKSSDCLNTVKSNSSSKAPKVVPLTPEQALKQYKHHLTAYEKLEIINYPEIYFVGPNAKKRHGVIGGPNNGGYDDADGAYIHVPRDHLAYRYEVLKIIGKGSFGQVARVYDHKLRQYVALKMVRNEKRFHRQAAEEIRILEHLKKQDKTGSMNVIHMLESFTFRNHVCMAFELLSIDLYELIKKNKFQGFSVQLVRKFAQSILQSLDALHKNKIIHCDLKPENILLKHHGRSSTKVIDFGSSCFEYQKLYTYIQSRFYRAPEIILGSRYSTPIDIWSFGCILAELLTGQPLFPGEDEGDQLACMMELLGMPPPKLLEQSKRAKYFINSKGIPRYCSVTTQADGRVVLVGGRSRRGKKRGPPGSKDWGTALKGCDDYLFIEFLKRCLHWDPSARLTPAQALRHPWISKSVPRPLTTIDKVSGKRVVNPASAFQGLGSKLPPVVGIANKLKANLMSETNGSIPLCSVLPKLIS
Nature of the experiment: Selectivity interaction (Kinase panel (Z-LYTE Assay)) EUB0001632a DYRK3. The following applies: at 10 µM.

The target in experiment [2] is T2, Mitogen-activated protein kinase kinase kinase 6 (Homo sapiens) (UniProt O95382).
T2 sequence (whole entry): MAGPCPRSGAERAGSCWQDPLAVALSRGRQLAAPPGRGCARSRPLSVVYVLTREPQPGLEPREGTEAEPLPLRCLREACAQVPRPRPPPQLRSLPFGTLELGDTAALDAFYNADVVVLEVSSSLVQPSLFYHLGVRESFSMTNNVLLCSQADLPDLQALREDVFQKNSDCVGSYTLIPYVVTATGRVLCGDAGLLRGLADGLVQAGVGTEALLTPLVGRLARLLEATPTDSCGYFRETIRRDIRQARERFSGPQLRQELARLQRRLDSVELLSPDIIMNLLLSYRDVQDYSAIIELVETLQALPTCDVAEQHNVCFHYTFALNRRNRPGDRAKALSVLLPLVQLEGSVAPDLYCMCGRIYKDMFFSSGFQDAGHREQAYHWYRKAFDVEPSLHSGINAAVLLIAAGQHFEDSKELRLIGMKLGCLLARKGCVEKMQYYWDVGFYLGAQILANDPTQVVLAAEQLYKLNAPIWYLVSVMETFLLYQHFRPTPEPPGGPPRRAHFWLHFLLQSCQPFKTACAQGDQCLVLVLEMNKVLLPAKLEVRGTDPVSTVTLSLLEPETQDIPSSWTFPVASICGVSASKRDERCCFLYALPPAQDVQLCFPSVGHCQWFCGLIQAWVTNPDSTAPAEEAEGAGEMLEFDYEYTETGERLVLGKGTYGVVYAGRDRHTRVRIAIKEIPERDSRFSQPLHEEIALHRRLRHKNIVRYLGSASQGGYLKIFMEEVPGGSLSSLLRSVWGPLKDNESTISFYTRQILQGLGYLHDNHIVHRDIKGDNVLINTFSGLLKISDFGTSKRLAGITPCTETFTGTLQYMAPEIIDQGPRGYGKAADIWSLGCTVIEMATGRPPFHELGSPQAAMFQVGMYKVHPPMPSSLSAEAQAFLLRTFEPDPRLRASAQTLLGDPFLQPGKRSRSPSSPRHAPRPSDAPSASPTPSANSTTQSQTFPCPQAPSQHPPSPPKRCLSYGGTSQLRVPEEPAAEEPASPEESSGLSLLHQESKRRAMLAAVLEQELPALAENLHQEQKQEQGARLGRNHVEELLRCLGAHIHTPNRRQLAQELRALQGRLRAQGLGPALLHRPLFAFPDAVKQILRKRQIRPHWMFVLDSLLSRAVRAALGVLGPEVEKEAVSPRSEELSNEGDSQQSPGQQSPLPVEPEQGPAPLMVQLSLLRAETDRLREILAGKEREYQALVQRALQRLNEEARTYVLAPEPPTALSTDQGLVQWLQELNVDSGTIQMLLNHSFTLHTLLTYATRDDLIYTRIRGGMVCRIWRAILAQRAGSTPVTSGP
The following applies: at 10 µM.

Experiment [3] has as its target Bromodomain adjacent to zinc finger domain protein 2A (Homo sapiens, UniProt Q9UIF9).

Chain of Bromodomain adjacent to zinc finger domain protein 2A (Q9UIF9 whole entry, the tested form may be a part): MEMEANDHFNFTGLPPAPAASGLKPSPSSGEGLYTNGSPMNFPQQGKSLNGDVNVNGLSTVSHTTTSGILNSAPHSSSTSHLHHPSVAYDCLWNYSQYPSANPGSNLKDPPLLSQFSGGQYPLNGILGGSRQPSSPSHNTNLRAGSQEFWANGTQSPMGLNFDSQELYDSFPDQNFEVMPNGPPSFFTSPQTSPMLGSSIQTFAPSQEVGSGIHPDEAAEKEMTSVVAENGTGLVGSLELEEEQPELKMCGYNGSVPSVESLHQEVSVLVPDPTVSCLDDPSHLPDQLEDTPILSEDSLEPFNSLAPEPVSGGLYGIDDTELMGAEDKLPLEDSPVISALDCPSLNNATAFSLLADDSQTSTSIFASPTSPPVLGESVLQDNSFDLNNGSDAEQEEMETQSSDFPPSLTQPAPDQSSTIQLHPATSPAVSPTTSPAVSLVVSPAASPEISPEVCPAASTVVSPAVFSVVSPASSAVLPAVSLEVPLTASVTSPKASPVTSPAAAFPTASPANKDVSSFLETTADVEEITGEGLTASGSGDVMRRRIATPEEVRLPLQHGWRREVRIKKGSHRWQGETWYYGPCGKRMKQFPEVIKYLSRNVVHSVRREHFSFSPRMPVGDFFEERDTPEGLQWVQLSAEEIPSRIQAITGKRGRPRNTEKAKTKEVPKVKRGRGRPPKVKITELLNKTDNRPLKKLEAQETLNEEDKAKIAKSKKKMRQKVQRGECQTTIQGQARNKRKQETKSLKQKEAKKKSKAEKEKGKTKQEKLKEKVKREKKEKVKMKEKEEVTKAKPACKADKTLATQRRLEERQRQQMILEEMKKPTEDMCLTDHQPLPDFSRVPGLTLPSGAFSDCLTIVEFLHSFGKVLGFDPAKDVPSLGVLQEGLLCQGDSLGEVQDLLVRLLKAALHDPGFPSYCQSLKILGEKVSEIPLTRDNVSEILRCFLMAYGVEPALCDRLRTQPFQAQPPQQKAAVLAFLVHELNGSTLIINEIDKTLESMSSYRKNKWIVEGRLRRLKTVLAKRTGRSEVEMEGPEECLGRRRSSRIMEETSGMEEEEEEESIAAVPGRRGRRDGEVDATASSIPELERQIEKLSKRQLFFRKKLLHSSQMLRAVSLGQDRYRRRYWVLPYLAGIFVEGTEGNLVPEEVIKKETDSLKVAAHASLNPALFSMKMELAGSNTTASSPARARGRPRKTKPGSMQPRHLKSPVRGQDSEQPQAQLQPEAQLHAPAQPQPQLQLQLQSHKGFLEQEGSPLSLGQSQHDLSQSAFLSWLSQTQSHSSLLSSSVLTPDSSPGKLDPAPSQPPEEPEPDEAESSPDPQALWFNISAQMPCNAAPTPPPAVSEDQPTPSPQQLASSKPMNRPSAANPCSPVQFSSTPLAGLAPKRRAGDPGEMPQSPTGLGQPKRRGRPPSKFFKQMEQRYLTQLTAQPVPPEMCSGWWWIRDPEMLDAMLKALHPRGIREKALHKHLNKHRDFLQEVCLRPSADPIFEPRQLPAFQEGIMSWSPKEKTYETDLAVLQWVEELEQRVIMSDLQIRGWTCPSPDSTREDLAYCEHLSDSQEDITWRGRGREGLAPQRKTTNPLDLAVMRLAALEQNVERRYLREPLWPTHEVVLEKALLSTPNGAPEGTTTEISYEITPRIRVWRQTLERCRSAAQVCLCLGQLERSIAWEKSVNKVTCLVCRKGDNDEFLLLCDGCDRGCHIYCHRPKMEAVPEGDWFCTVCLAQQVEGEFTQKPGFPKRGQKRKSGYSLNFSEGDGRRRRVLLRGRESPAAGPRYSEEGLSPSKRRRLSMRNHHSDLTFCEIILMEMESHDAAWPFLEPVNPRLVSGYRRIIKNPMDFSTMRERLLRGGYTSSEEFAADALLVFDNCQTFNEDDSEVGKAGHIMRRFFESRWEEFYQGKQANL

`Cn1cc(-n2cnc3c(NCc4nc5cc(Cl)c(Cl)cc5[nH]4)nc(N4CCOCC4)nc32)cn1`: in experiment [1], the % of control worked out at 10.6%.
Regarding `Cc1cc([C@@H](C)Nc2ccccc2C(=O)O)c2nc(N3CCOCC3)cc(=O)n2c1` [AZD-6482], the % of control in experiment [2] amounted to 95%.
In experiment [3], `CN(C)CCCOc1ccc(-c2cc(NCCCn3cccn3)nc(S(C)(=O)=O)n2)cc1` gave a dTM of less than 2 K.
